Among the test systems are HL-60(TB) leukemia; IGROV1 ovarian; RXF 393 renal; HOP-62 NSCLC; SW-620 colon; SK-MEL-2 melanoma; RPMI-8226 leukemia; UACC-257 melanoma; SK-MEL-5 melanoma; OVCAR-8 ovarian.
What all share (assay): NCI tumour cell line growth inhibition, 48 h

“And” between values parts separate entries of the source, which are not always exact repeats. Identical values can stand only once.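 These data come from cells grown in 96-well plates and exposed to compound for 48 hours at five concentrations. GI50 marks 50% less growth. TGI: total growth inhibition.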 A value given as a limit tells only on which side of the number the result lay.

For the compound `Cc1ccc(OC(=O)N2C/C(=C\c3ccccc3)C(=O)/C(=C/c3ccccc3)C2)cc1`, the TGI is 15.6 µM in the experiment on HL-60(TB) leukemia; greater than 95.5 µM in the experiment on IGROV1 ovarian; 37.5 µM in the experiment on RXF 393 renal; 38.7 µM in the experiment on HOP-62 NSCLC; 35.6 µM with SW-620 colon; greater than 100 µM in the experiment on SK-MEL-2 melanoma. For the same compound, the TGI with RPMI-8226 leukemia is 1.9 µM; in the experiment on UACC-257 melanoma it was 69.5 µM; in the experiment on SK-MEL-5 melanoma, greater than 57.3 µM; with OVCAR-8 ovarian, 54.5 µM.

As to `Cc1nc2ccccc2c(=O)n1/N=C(\N=Nc1cc(Cl)ccc1Cl)c1ccccc1`, the TGI with HL-60(TB) leukemia is greater than 100 µM; in the experiment on IGROV1 ovarian it was greater than 100 µM; in the experiment on RXF 393 renal, greater than 100 µM; in the experiment on HOP-62 NSCLC, greater than 100 µM; with SW-620 colon it was greater than 73.8 µM; with SK-MEL-2 melanoma, greater than 100 µM. Besides, the TGI in the experiment on RPMI-8226 leukemia was greater than 100 µM; in the experiment on UACC-257 melanoma, 66 µM; in the experiment with SK-MEL-5 melanoma it was greater than 100 µM; with OVCAR-8 ovarian, greater than 100 µM.

For the compound `C#C[C@]1(O)CC[C@H]2[C@@H]3CC=C4c5nc(N)sc5CC[C@]4(C)[C@H]3CC[C@@]21C`, the GI50 was 2.65 µM in the experiment with HL-60(TB) leukemia; 4.83 µM in the experiment on IGROV1 ovarian; 1.81 µM in the experiment on RXF 393 renal; 3.43 µM in the experiment on HOP-62 NSCLC; 2.81 µM in the experiment on SW-620 colon; 2.72 µM in the experiment on SK-MEL-2 melanoma. Besides, the GI50 in the experiment on RPMI-8226 leukemia is 1.57 µM; with UACC-257 melanoma, 2.36 µM; in the experiment with SK-MEL-5 melanoma, 1.91 µM; with OVCAR-8 ovarian, 9.12 µM. For the same compound, the TGI stood at 7.04 µM with HL-60(TB) leukemia; 25.9 µM in the experiment with IGROV1 ovarian; 3.72 µM in the experiment with RXF 393 renal; 14.7 µM in the experiment with HOP-62 NSCLC; 8.68 µM in the experiment with SW-620 colon; 7.57 µM in the experiment on SK-MEL-2 melanoma. The TGI was 4.73 µM with RPMI-8226 leukemia, 6.86 µM in the experiment on UACC-257 melanoma, 3.63 µM in the experiment on SK-MEL-5 melanoma and 56.1 µM in the experiment with OVCAR-8 ovarian.

Consider `COc1ccc(Br)c(C(=O)N2CCc3ccccc32)c1N`, for which the TGI is greater than 100 µM with HL-60(TB) leukemia; greater than 100 µM in the experiment on IGROV1 ovarian; greater than 100 µM in the experiment on RXF 393 renal; greater than 100 µM with HOP-62 NSCLC; greater than 100 µM in the experiment on SW-620 colon; 84.5 µM with SK-MEL-2 melanoma. Also, the TGI in the experiment with RPMI-8226 leukemia, with UACC-257 melanoma, in the experiment with SK-MEL-5 melanoma and in the experiment on OVCAR-8 ovarian was greater than 100 µM in each case.

As for `C=C1C[C@@H]2O[C@H]3[C@H]4[C@@H](CC[C@@](C)(OC(=O)CCC)[C@H]42)[C@@H](C)C(=O)O[C@@]3(C)CC[C@H]1OO`, the GI50 in the experiment on HL-60(TB) leukemia is 12.2 µM; in the experiment on IGROV1 ovarian, 17.8 µM; in the experiment with RXF 393 renal, 27.6 µM; in the experiment with HOP-62 NSCLC, 25.7 µM; with SW-620 colon, 19.6 µM; in the experiment with SK-MEL-2 melanoma, 52.2 µM. Also, the GI50 in the experiment on RPMI-8226 leukemia is 14 µM; in the experiment with UACC-257 melanoma, 26.2 µM; with SK-MEL-5 melanoma it was 17.8 µM; in the experiment with OVCAR-8 ovarian, 22.6 µM. Besides, the TGI in the experiment on HL-60(TB) leukemia was 28.1 µM; in the experiment on IGROV1 ovarian, 35.6 µM; with RXF 393 renal, 88.6 µM; in the experiment on HOP-62 NSCLC it was 55.3 µM; with SW-620 colon, 37.1 µM; in the experiment with SK-MEL-2 melanoma it was greater than 100 µM. In addition, the TGI came to 28.8 µM with RPMI-8226 leukemia, 76.7 µM in the experiment on UACC-257 melanoma, 32.8 µM in the experiment with SK-MEL-5 melanoma and 51.6 µM in the experiment with OVCAR-8 ovarian.

For `COc1cc2ncnc(Oc3cccc(NC(=O)Nc4cc(C(C)(C)C(F)(F)F)on4)c3)c2cc1OC`, the GI50 with HL-60(TB) leukemia is 2.7 µM and 0.816 µM; with IGROV1 ovarian it was 0.565 µM and 0.634 µM; with RXF 393 renal it was 2.16 µM and 2.68 µM; with HOP-62 NSCLC, 2.45 µM and 2.53 µM; with SW-620 colon, 1.21 µM and 1.6 µM; with SK-MEL-2 melanoma it was 0.443 µM and 0.565 µM. Also, the GI50 with RPMI-8226 leukemia was 2.6 µM and 2.93 µM; in the experiment with UACC-257 melanoma it was 0.132 µM and 0.235 µM; with SK-MEL-5 melanoma it was 1.3 µM and 1.45 µM; with OVCAR-8 ovarian it was 2.54 µM and 3.09 µM. Moreover, the TGI was greater than 28.5 µM in the experiment with HL-60(TB) leukemia; 4.61 µM and 3.69 µM in the experiment with IGROV1 ovarian; 8.14 µM and > 10 µM in the experiment on RXF 393 renal; 16.8 µM and > 10 µM with HOP-62 NSCLC; 20.8 µM and > 10 µM with SW-620 colon; 2.26 µM and 3.06 µM in the experiment on SK-MEL-2 melanoma. The TGI is 11.3 µM and > 10 µM with RPMI-8226 leukemia; 1.08 µM and 3.58 µM with UACC-257 melanoma; 3.01 µM and 3.67 µM in the experiment on SK-MEL-5 melanoma; 21.5 µM and > 10 µM in the experiment on OVCAR-8 ovarian.

Take `COc1cccc(/C=N\NC(=O)C(C)SC(C)C(=O)N/N=C/c2cccc(OC)c2)c1` (stereo not drawn): the TGI is greater than 100 µM in the experiment with HL-60(TB) leukemia; 41.7 µM in the experiment on IGROV1 ovarian; 28.6 µM in the experiment with RXF 393 renal; 33.1 µM in the experiment on HOP-62 NSCLC; greater than 100 µM in the experiment on SW-620 colon; greater than 62.6 µM in the experiment with SK-MEL-2 melanoma. Also, the TGI with RPMI-8226 leukemia was greater than 82.3 µM; in the experiment on UACC-257 melanoma, greater than 100 µM; in the experiment with SK-MEL-5 melanoma, greater than 100 µM; in the experiment on OVCAR-8 ovarian it was 70 µM.

Regarding `COc1cc2cc(Oc3cccc(NC(=O)Nc4cc(C(F)(F)F)cc(C(F)(F)F)c4)c3)c(C)nc2cc1OC`, the GI50 in the experiment with HL-60(TB) leukemia is 1.58 µM; in the experiment with IGROV1 ovarian, 0.509 µM; with RXF 393 renal it was 2.06 µM; in the experiment with HOP-62 NSCLC, 1.35 µM; with SW-620 colon, 1.94 µM; in the experiment on SK-MEL-2 melanoma, 1.82 µM. For the same compound, the GI50 was 0.406 µM in the experiment with RPMI-8226 leukemia, 2.48 µM with UACC-257 melanoma, 1.62 µM in the experiment with SK-MEL-5 melanoma and 1.63 µM in the experiment with OVCAR-8 ovarian. Besides, the TGI with HL-60(TB) leukemia stood at 4.37 µM; in the experiment on IGROV1 ovarian, 2.3 µM; in the experiment on RXF 393 renal it was 4.79 µM; in the experiment on HOP-62 NSCLC, 2.88 µM; with SW-620 colon, 5.71 µM; in the experiment on SK-MEL-2 melanoma it was 4.24 µM. The TGI in the experiment with RPMI-8226 leukemia is 5.51 µM; with UACC-257 melanoma it was 5.49 µM; in the experiment with SK-MEL-5 melanoma, 3.28 µM; in the experiment on OVCAR-8 ovarian it was 4.22 µM.

Regarding `NCCCN=c1ccc2c3c1c(O)c1c(O)ccc(=O)c1c3[nH]n2CCNCCO`, the GI50 in the experiment on HL-60(TB) leukemia is 0.665 µM and 0.556 µM; with RXF 393 renal, 3.03 µM and 1.21 µM; in the experiment on HOP-62 NSCLC, 0.484 µM; in the experiment with SK-MEL-2 melanoma, 3.28 µM and 1.08 µM; in the experiment with RPMI-8226 leukemia, 2.93 µM; in the experiment on UACC-257 melanoma, 4.32 µM. The GI50 is 0.706 µM in the experiment on SK-MEL-5 melanoma; 3.34 µM and 1.15 µM with OVCAR-8 ovarian. In addition, the TGI with HL-60(TB) leukemia is 1.7 µM and 9.33 µM; with IGROV1 ovarian, 15.4 µM and 129 µM; with RXF 393 renal, 8.38 µM and 5.39 µM; with HOP-62 NSCLC, 11.1 µM and 9.68 µM; with SW-620 colon, 9.98 µM and 40.5 µM; in the experiment with SK-MEL-2 melanoma, 8.18 µM and 4.08 µM. Also, the TGI with RPMI-8226 leukemia is 9.94 µM and 22.3 µM; in the experiment with UACC-257 melanoma, 14.1 µM and 105 µM; in the experiment on SK-MEL-5 melanoma, 3.61 µM and 4.11 µM; with OVCAR-8 ovarian, 15.7 µM and 20 µM.

These data come from PubChem BioAssay (NCI).
